Test results: publication PMC12389415, “Killer Peptide-Containing Polyelectrolytic Nanocomplexes to Fight Toxoplasma gondii Infection” (Pharmaceutics, 2025)
Read-outs that look alike come from different tables or passages of the source. Where a SMILES comes first, the peptide text is derived from it.

Columns and labels:
[1] = system: T. gondii free tachyzoites; assay: Free tachyzoites exposure, parasite quantification by real-time PCR (B1 gene); format: cell-based, Toxoplasma gondii
Experimental: Additionally, the same experiment was performed in duplicate to extract DNA for subsequent quantification of the parasite using real-time PCR CFX96™ Biorad® (version 3.1) (without using coverslips in the wells). The protocol by Santoro et al., amplifying the target B1 gene using Taqman technology, was optimized by defining the appropriate annealing temperature and amplification cycles. A standard curve for quantification was generated using T. gondii RH-WT grown in HFF cells, to ensure consistency in the results. DNA was extracted with the commercial kit Invitrogen PureLink™ Genomic DNA Mini Kit (Thermo Fisher Scientific, Waltham, Massachusetts, USA) from infected cells (control/treatment) 48 h after seeding, and it was used for amplification of the B1 gene.
The resulting product was loaded onto an agarose gel, and the corresponding band was excised for DNA quantification (12.3 ng/µL). From this, the number of copies per µL (1.1 × 10^11) was calculated using Copy Number Calculator (accessed on 11 April 2025)), and a standard curve was generated via serial dilutions (starting from a concentration of 10^8 copies of DNA/µL down to 10^2 copies of DNA/µL). Each condition was tested in four wells; three independent experiments were conducted.

[2] = supplier data; ref Thermo Scientific; cited from earlier work
Text: Killer peptide ([…], MW: 998.2, isoelectric point: 8.97) was acquired from Thermo Scientific (Rockford, IL, USA). Sodium hyaluronate (Hyal, MW: 15–30 kDa) was obtained from Contipro (Praha, Czech Republic). Chitosan (Chito, MW: 66 kDa, degree of deacetylation: 96%) was from Primex (Siglufjordur, Iceland). Acetic acid was from Merck. Ultrapure (UP) water was obtained by inverse osmosis using an Arium Comfort® system by Sartorius (Gottingen, Germany). Solvents and reagents were from Avantor, VWR, unless otherwise specified. Resazurin and chlorophenol red-β-D-galactopyranoside (CPRG) were ...

[3] = Experimental: Before formulation, peptide solubility and gelation properties were evaluated by dispersing the powder in different solvents, namely ultrapure water, phosphate-buffered saline, ethanol, methanol, or isopropanol, to evaluate its solubility and gelation properties and select the more appropriate formulative approach by microfluidics.
The solubility of KP and the flowability of the resulting solution are critical elements for microfluidic processing, since viscous solutions cannot be used, as they alter laminar flow conditions or clog the chip’s channels. For this reason, common solvents were screened to select those providing the highest solubility, to prevent spontaneous precipitation of the peptide, without neglecting their acceptability from the toxicological point of view.

[4] = Stability of free KP and KP-NPs under stress conditions (60 °C, acid, alkali); details: 2 h, Micro BCA
Experimental: Moreover, KP-NPs were exposed to harsh conditions, to assess the ability of the formulation to protect KP from environmental degradation. […] These three samples were exposed to high temperatures (60 °C) for 2 h, then particle size and KP content were evaluated as described above.
To further assess the stability of KP-NPs and their potential protective effect on KP, both free KP and KP-NPs were subjected to harsh stress conditions, namely high temperature (60 °C) and strong acidic or alkaline environment (0.1 M HCl or NaOH) for two hours. […] As for nanoparticles, particle size was checked (Table 3), and the amount of KP released quantified.

[5] = system: T. gondii β-gal-RH (Type I) intracellular tachyzoites in HFFs; assay: Toxo-β-gal assay, post-infection model (intracellular parasites); format: cell-based, Toxoplasma gondii; details: dose-response, 48 h
Experimental: T. gondii β-gal-RH (Type I) is a genetically modified strain constitutively expressing β-galactosidase under the control of the promoter SAG1 (constitutive promoter). Susceptibility of T. gondii β-gal to the tested compounds was assessed by determining IC50 values based on β-galactosidase assay, as described by Păunescu et al. Briefly, HFFs (5 × 10^3/well) were seeded into 96-well plates, and once confluent, 200 µL of a suspension of parasites prepared in DMEM + 10% FBS at the concentration of 7.5 × 10^4/mL was added to each well resulting in 1.5 × 10^4 parasites per well.
Plates were incubated for 48 h 37 °C, 5% CO2, then cultures were washed once with 200 μL/well of PBS 1×. […] In total, 10 μL of 5 mM chlorophenol red-β-D-galactopyranoside (CPRG) was added to each well, and the reaction was monitored until saturation (usually reached in 30 min) by repeatedly measuring absorbance at 570 nm. The values obtained from the initial readings were subtracted from the respective final readings, and from these, the averages of each group were calculated. This was followed by calculation of the standard deviation and the calculation of percentage (normalized) absorbance, which was obtained from a ratio between the mean of the treatments and the mean of the negative control (DMEM 10% FBS), multiplied by 100. […]

[6] = system: intracellular tachyzoites of T. gondii; details: in vitro; cited from earlier work
Text: From a parasitological point of view, the fact that the nanoparticles developed here are effective against T. gondii, also without KP, is very intriguing and represents a novel finding. In fact, to the best of our knowledge, no literature describes a parasiticidal role of hyaluronate; while some studies have investigated the parasiticidal activity of chitosan-based nanoparticles, this was limited to the extracellular form or fre ...

[7] = real-time PCR B1 gene, 48 h, KP 250 µg/mL or corresponding NPs

Compound	% Reduction Rate (parasite load) ([1]; compared to the control (DMEM), KP 250 µg/mL or corresponding NPs)	Log SQ [1, 7]	SQ Mean [1, 7]	Cq Mean ([1]; real-time PCR B1 gene, DNA extracted 48 h after seeding, KP 250 µg/mL or corresponding NPs)	FC ([1]; vs DMEM control)	ΔCq ([1]; vs DMEM control)	isoelectric point [2]	Sol-gel transition kinetics in water ([3]; KP 3.5 mg/mL, room temperature)	Sol-gel transition kinetics in water ([3]; KP 5 mg/mL)	Gelation in ethanol ([3]; after dissolution at 2 mg/mL)	Solubility in ethanol ([3]; at least up to)	Solubility in PBS ([3]; phosphate-buffered saline)	Solubility in acetone ([3]; powder dispersed in solvent)	Solubility in isopropanol ([3]; powder dispersed in solvent)	Solubility in methanol ([3]; verified up to)	Recovery of peptide after stress ([4]; acidic conditions (0.1 M HCl), 60 °C)	Peptide degraded after stress ([4]; alkaline conditions (0.1 M NaOH), 60 °C)	Recovery of peptide after stress ([4]; high temperature (60 °C))	Efficacy against intracellular T. gondii (in words) [5]	IC50 [6]
CSCC[C@H](NC(=O)[C@@H](NC(=O)[C@@H](NC(=O)[C@H](CCCCN)NC(=O)[C@H](C)N)C(C)C)[C@@H](C)O)C(=O)N[C@H](C(=O)N[C@@H](CS)C(=O)N[C@@H](CO)C(=O)N[C@@H](C)C(=O)N[C@@H](CO)C(=O)O)[C@@H](C)O [KP] (H-AKVTMTCSAS-OH; N-terminus and C-terminus assumed)	94.6%	3.741	6041	28.17	0.072	3.80	8.97	over the course of two days	almost instantaneous	almost immediate transition, leading to the formation of a thick gel	≥ 2000 µg/mL	practically insoluble	practically insoluble	practically insoluble	≥ 2000 µg/mL	full recovery	approximately 20%	full recovery	did not exhibit any efficacy	
spiramycin																				218 µg/mL
